Assay: In vitro skin permeation profiles (permeation cell)
Type: in vitro ADME, human
Procedure: Comparison In Vitro Skin Permeation Profiles of Amanidine Prodrugs • System: in-vitro permeation cell (9 ml acceptor volume/1.539 cm^2 diffusion area, 32° C.) • Acceptor medium: phosphate buffer pH 5.5+0.1% NaN3 according to DAB 10 • Active ingredient: benzamidine, benzamidoxime (from Ex. 1) • Skin type: human full skin, ID 899 (belly person) • Vehicle: suspension in olive oil (2% by weight, 50 mg suspension per cell), applied to a circular nonwoven disk made of synthetic wool ([…] type I/20) and occlusively covered with a PSA film (silicone adhesive) as “over-plaster”.

Row | permeated amount (0 h, human full skin, 2% by weight suspension in olive oil, acceptor phosphate buffer pH 5.5, 32° C.) | permeated amount (8 h, human full skin, 2% by weight suspension in olive oil, acceptor phosphate buffer pH 5.5, 32° C.) | permeated amount (24 h, human full skin, 2% by weight suspension in olive oil, acceptor phosphate buffer pH 5.5, 32° C.) | permeated amount (32 h, human full skin, 2% by weight suspension in olive oil, acceptor phosphate buffer pH 5.5, 32° C.) | permeated amount (48 h, human full skin, 2% by weight suspension in olive oil, acceptor phosphate buffer pH 5.5, 32° C.) | permeated amount (female, human, 0 h, 2 % by weight, pH 5.5) | permeated amount (female, human, 8 h, 2 % by weight, pH 5.5) | permeated amount (female, human, 24 h, 2 % by weight, pH 5.5) | permeated amount (female, human, 32 h, 2 % by weight, pH 5.5) | permeated amount (female, human, 48 h, 2 % by weight, pH 5.5) | SMILES | comparison of the permeated amounts of benzamidine and benzamidoxime
1 | 0 | 2.24 | 13.7 | 21.2 | 41.3 |  |  |  |  |  | N=C(N)c1ccccc1 [Benzamidine, benzamidine, reference compound] | 
2 |  |  |  |  |  | 0 | 50.2 | 235 | 315 | 403 | NC(=NO)c1ccccc1 [Benzamidinoxime, Benzamidoxime] | advantage of the benzamidoxime being clearly visible

— US20110311593A1, “N-HYDROXYLATED AMIDINE-, GUANIDINE- AND/OR AMINOHYDRAZONE-TYPE PRODRUGS FOR APPLICATION ON THE SKIN” (priority 2009, published 2011)
